# Source: patent US4889953A, “Glycerol derivatives, their production and use” (Takeda Chemical Industries, Ltd., priority 1986, dated 1989)
# Experiments:
# [1] = system: Platelet aggregation caused by PAF; test: Inhibition of PAF-induced platelet aggregation in rabbit PRP (Test Example 5); type: cell-based; settings: Oryctolagus cuniculus, PAF 1×10^-8 M, read-out: inhibition ratio (%) of PAF-induced platelet aggregation
# Description: Blood was collected directly from a male rabbit, using a syringe containing 3.15% of citric acid (at a ratio of 1 part to 9 parts of blood) as an anticoagulant, and centrifuged at 800 rpm for 10 minutes at room temperature to obtain platelet rich plasma (PRP). The remaining blood was centrifuged further at 3000 rpm for 10 minutes to obtain platelet poor plasma (PPP) as the supernatant. By dilution of PRP with PPP, the platelet count was adjusted to about 500,000 cells/μl. After 250 μl of the resulting PRP was stirred at 37° C. for 2 minutes, a certain amount of the test compound was added, and the mixture was stirred for further 2 minutes, and then 1×10^-8 M of PAF was added. Platelet aggregation was measured by using a platelet aggregometer (manufactured by Rika Denki Co. in Japan). The aggregation-inhibiting activity of a test compound was determined from the inhibition ratio against maximal transmittance (maximal aggregation ratio) caused by PAF in the control PRP.
# [2] = due to PAF-related structure; cited from earlier work
# [3] = unlike PAF; cited from earlier work
# Sarcoma 180 cells [4] = test: Antitumor action, Sarcoma 180 intraperitoneal in ICR mice, life-span and survivors on 40th day (Test Example 1); type: in vivo; settings: 0.33 mg/mouse i.p. three times
# Description: Antitumor action of the compounds in Working Examples
# ICR mice (a group consisting of five mice) were inoculated intraperitoneally with 1×10^5 Sarcoma 180 cells per mouse, and then given intraperitoneally 0.33 mg/mouse of a compound dissolved in physiological saline, three times, i.e. 1 hour, 1 day and 2 days after inoculation. Reference compound IV, Va or Vb was given to mice under the same conditions. Shown in Table 1 are the life-span prolongation ratio against the untreated control group and the number of survived mice on the 40th day after the initiation of the test.
# [5] = system: mouse mammary carcinoma cells MM46; test: Antitumor action, MM46 intraperitoneal in C3H mice, life-span and survivors on 40th day (Test Example 3); type: in vivo; settings: 0.25 mg/mouse once a day for 4 days
# Description: (§1) Antitumor action of the compound of Working Example 8
# C3H mice (a group consisting of 5 mice) were inoculated intraperitoneally with 1×10^4 mouse mammary carcinoma cells MM46 per mouse, and given 0.25 mg/mouse of the compound of Working Example 8 dissolved in physiological saline once a day for 4 consecutive days starting from the second day after the inoculation. The Reference compound (IV) was given under the same conditions. Shown in Table 3 are the life-span prolongation ratio against the untreated control group and the number of survived mice on the 40th day after initiation of the test.
# Sarcoma 180 cells [6] = test: Antitumor action, Sarcoma 180 subcutaneous in ICR mice, intravenous dosing, tumor proliferation inhibition (Test Example 2); type: in vivo; settings: 0.3 mg/mouse i.v. 9 times; tumor weight after 21 days
# Description: as §1
# ICR mice (a group consisting of 5 mice) were inoculated subcutaneously with 1×10^6 Sarcoma 180 cells per mouse, and given intravenously 0.03 mg/mouse or 0.3 mg/mouse of the compound of Working Example 8 dissolved in physiological saline 9 times in total, i.e. 8, 9, 10, 13, 14, 15, 16, 17, and 20 days after inoculation. The Reference compound (IV), 0.3 mg/mouse, was given under the same conditions. After 21 days, the tumor tissue was extirpated and the tumor weight was weighed. Shown in Table 2 is tumor proliferation inhibition ratio as compared with the untreated control group.
compound,measurement,setting,value
"CCCCCCCCCCCCCCCCCCOCC(COP(=O)([O-])OCC[N+](C)(C)C)OC (stereo not shown) [Compound IV, reference compound]",inhibition at 30 µM,[1]; 3 × 10^-5 M,0%
same,inhibition at 3 µM,[1]; 3 × 10^-6 M,0%
same,inhibition at 0.3 µM,[1]; 3 × 10^-7 M,0%
same,PAF-like actions,[2],"serotonin liberation, bronchial constriction, platelet aggregation, and blood pressure lowering"
same,antitumor actions,[3],antitumor actions
same,No. of survivors/No. of mice tested,Sarcoma 180 cells [4],0/5
same,"Life-span prolongation ratio (T/C, %)",Sarcoma 180 cells [4]; only related to mice found dead,162%
same,No. of survivors/No. of mice tested,[5],0/5
same,"Life-span prolongation ratio (T/C, %)",[5]; survivors not included,155%
same,Inhibition ratio (1-T/C) (%),Sarcoma 180 cells [6],58%
